In BigSolDB 2.1:

For `CC1(C)COP(=O)(C(Nc2ccccc2)c2ccccc2)OC1` (stereo not drawn), the solubility (mole fraction) (in 1,2-dichloroethane, 278.65 K) was 0.0102, the solubility (mole fraction) (in 1,2-dichloroethane, 283.65 K) was 0.0119 and the solubility (mole fraction) (in 1,2-dichloroethane, 288.65 K) was 0.0143. For the same compound, the solubility (mole fraction) (in 1,2-dichloroethane, 293.25 K) was 0.0169, the solubility (mole fraction) (in 1,2-dichloroethane, 298.15 K) was 0.0191 and the solubility (mole fraction) (in 1,2-dichloroethane, 303.15 K) was 0.0229. The solubility (mole fraction) (in 1,2-dichloroethane, 308.25 K) was 0.0265, the solubility (mole fraction) (in 1,2-dichloroethane, 313.15 K) was 0.031 and the solubility (mole fraction) (in 1,2-dichloroethane, 318.15 K) was 0.035. It also gave a solubility (mole fraction) (in 1,2-dichloroethane, 323.15 K) of 0.0395, a solubility (mole fraction) (in 1,2-dichloroethane, 328.15 K) of 0.0437 and a solubility (mole fraction) (in 1,2-dichloroethane, 333.15 K) of 0.0526. It also gave a solubility (mole fraction) (in 1,4-dioxane, 285.65 K) of 0.00609, a solubility (mole fraction) (in 1,4-dioxane, 288.65 K) of 0.00661 and a solubility (mole fraction) (in 1,4-dioxane, 293.65 K) of 0.00739. For the same compound, the solubility (mole fraction) (in 1,4-dioxane, 298.15 K) was 0.00887, the solubility (mole fraction) (in 1,4-dioxane, 303.15 K) was 0.0103 and the solubility (mole fraction) (in 1,4-dioxane, 308.15 K) was 0.0121. For the same compound, the solubility (mole fraction) (in 1,4-dioxane, 313.15 K) was 0.0139, the solubility (mole fraction) (in 1,4-dioxane, 318.15 K) was 0.0162 and the solubility (mole fraction) (in 1,4-dioxane, 323.15 K) was 0.019. The solubility (mole fraction) (in 1,4-dioxane, 328.15 K) was 0.023, the solubility (mole fraction) (in THF, 278.65 K) was 0.00583 and the solubility (mole fraction) (in THF, 283.65 K) was 0.00648. The solubility (mole fraction) (in THF, 288.15 K) was 0.00764, the solubility (mole fraction) (in THF, 293.25 K) was 0.00858 and the solubility (mole fraction) (in THF, 298.25 K) was 0.0102. The solubility (mole fraction) (in THF, 303.15 K) was 0.0117, the solubility (mole fraction) (in THF, 307.95 K) was 0.0133 and the solubility (mole fraction) (in THF, 313.15 K) was 0.0152. For the same compound, the solubility (mole fraction) (in THF, 318.05 K) was 0.0169, the solubility (mole fraction) (in THF, 322.65 K) was 0.0187 and the solubility (mole fraction) (in THF, 327.15 K) was 0.0215. It also gave a solubility (mole fraction) (in THF, 332.65 K) of 0.0237, a solubility (mole fraction) (in acetone, 278.15 K) of 0.00244 and a solubility (mole fraction) (in acetone, 283.75 K) of 0.00314. It also gave a solubility (mole fraction) (in acetone, 288.15 K) of 0.00432, a solubility (mole fraction) (in acetone, 293.75 K) of 0.00578 and a solubility (mole fraction) (in acetone, 298.65 K) of 0.00728. It also gave a solubility (mole fraction) (in acetone, 302.75 K) of 0.00898, a solubility (mole fraction) (in acetone, 307.85 K) of 0.0112 and a solubility (mole fraction) (in acetone, 311.75 K) of 0.0138. The solubility (mole fraction) (in acetone, 317.15 K) was 0.0171, the solubility (mole fraction) (in acetone, 321.25 K) was 0.0186 and the solubility (mole fraction) (in acetonitrile, 278 K) was 0.00557. It also gave a solubility (mole fraction) (in acetonitrile, 285.65 K) of 0.0068, a solubility (mole fraction) (in acetonitrile, 288.75 K) of 0.00746 and a solubility (mole fraction) (in acetonitrile, 293.75 K) of 0.00887. It also gave a solubility (mole fraction) (in acetonitrile, 298.25 K) of 0.0101, a solubility (mole fraction) (in acetonitrile, 303.25 K) of 0.0119 and a solubility (mole fraction) (in acetonitrile, 308.15 K) of 0.0142. The solubility (mole fraction) (in acetonitrile, 312.75 K) was 0.0161, the solubility (mole fraction) (in acetonitrile, 317.65 K) was 0.0192 and the solubility (mole fraction) (in acetonitrile, 322.45 K) was 0.0218. It also gave a solubility (mole fraction) (in acetonitrile, 327.75 K) of 0.0258, a solubility (mole fraction) (in acetonitrile, 335.35 K) of 0.0328 and a solubility (mole fraction) (in benzene, 278.65 K) of 0.0011. The solubility (mole fraction) (in benzene, 283.65 K) was 0.00131, the solubility (mole fraction) (in benzene, 288.15 K) was 0.00162 and the solubility (mole fraction) (in benzene, 293.25 K) was 0.00201. For the same compound, the solubility (mole fraction) (in benzene, 298.25 K) was 0.00245, the solubility (mole fraction) (in benzene, 303.15 K) was 0.00301 and the solubility (mole fraction) (in benzene, 307.95 K) was 0.00381. The solubility (mole fraction) (in benzene, 313.15 K) was 0.00464, the solubility (mole fraction) (in benzene, 318.05 K) was 0.00519 and the solubility (mole fraction) (in benzene, 322.65 K) was 0.00634. For the same compound, the solubility (mole fraction) (in benzene, 327.15 K) was 0.00711, the solubility (mole fraction) (in benzene, 332.65 K) was 0.0093 and the solubility (mole fraction) (in benzene, 337.55 K) was 0.0107. For the same compound, the solubility (mole fraction) (in benzene, 343.15 K) was 0.0123, the solubility (mole fraction) (in benzene, 347.5 K) was 0.0149 and the solubility (mole fraction) (in chloroform, 278.75 K) was 0.0352. For the same compound, the solubility (mole fraction) (in chloroform, 283.65 K) was 0.0382, the solubility (mole fraction) (in chloroform, 288.85 K) was 0.0403 and the solubility (mole fraction) (in chloroform, 293.95 K) was 0.042. It also gave a solubility (mole fraction) (in chloroform, 298.35 K) of 0.0444, a solubility (mole fraction) (in chloroform, 303.25 K) of 0.0471 and a solubility (mole fraction) (in chloroform, 307.75 K) of 0.0492. It also gave a solubility (mole fraction) (in chloroform, 313.15 K) of 0.0527, a solubility (mole fraction) (in chloroform, 317.95 K) of 0.0548 and a solubility (mole fraction) (in chloroform, 322.75 K) of 0.0591. The solubility (mole fraction) (in chloroform, 327.95 K) was 0.0646, the solubility (mole fraction) (in dichloromethane, 278.65 K) was 0.00771 and the solubility (mole fraction) (in dichloromethane, 283.25 K) was 0.00994. The solubility (mole fraction) (in dichloromethane, 288.65 K) was 0.012, the solubility (mole fraction) (in dichloromethane, 293.25 K) was 0.0152 and the solubility (mole fraction) (in dichloromethane, 298.85 K) was 0.0189. The solubility (mole fraction) (in dichloromethane, 302.95 K) was 0.0232, the solubility (mole fraction) (in dichloromethane, 308.35 K) was 0.0274 and the solubility (mole fraction) (in dichloromethane, 310.95 K) was 0.0317. It also gave a solubility (mole fraction) (in ethyl acetate, 293.65 K) of 0.00232, a solubility (mole fraction) (in ethyl acetate, 298.25 K) of 0.00278 and a solubility (mole fraction) (in ethyl acetate, 303.15 K) of 0.00385. The solubility (mole fraction) (in ethyl acetate, 308.05 K) was 0.0046, the solubility (mole fraction) (in ethyl acetate, 312.95 K) was 0.00561 and the solubility (mole fraction) (in ethyl acetate, 317.95 K) was 0.00671. For the same compound, the solubility (mole fraction) (in ethyl acetate, 322.95 K) was 0.00781, the solubility (mole fraction) (in ethyl acetate, 327.95 K) was 0.00913 and the solubility (mole fraction) (in ethyl acetate, 332.75 K) was 0.0097. For the same compound, the solubility (mole fraction) (in ethyl acetate, 337.65 K) was 0.0111, the solubility (mole fraction) (in isopropanol, 278.15 K) was 0.0004 and the solubility (mole fraction) (in isopropanol, 283.15 K) was 0.0005. It also gave a solubility (mole fraction) (in isopropanol, 288.35 K) of 0.00066, a solubility (mole fraction) (in isopropanol, 293.65 K) of 0.0008 and a solubility (mole fraction) (in isopropanol, 298.15 K) of 0.00106. For the same compound, the solubility (mole fraction) (in isopropanol, 302.17 K) was 0.00128, the solubility (mole fraction) (in isopropanol, 307.95 K) was 0.00177 and the solubility (mole fraction) (in isopropanol, 312.55 K) was 0.00203. For the same compound, the solubility (mole fraction) (in isopropanol, 317.55 K) was 0.00254, the solubility (mole fraction) (in isopropanol, 321.55 K) was 0.00318 and the solubility (mole fraction) (in isopropanol, 326.65 K) was 0.00389. The solubility (mole fraction) (in isopropanol, 332.15 K) was 0.00485, the solubility (mole fraction) (in isopropanol, 337.55 K) was 0.00626 and the solubility (mole fraction) (in isopropanol, 343.15 K) was 0.00791. It also gave a solubility (mole fraction) (in isopropanol, 347.5 K) of 0.00958, a solubility (mole fraction) (in methanol, 278.15 K) of 0.00151 and a solubility (mole fraction) (in methanol, 283.65 K) of 0.002. It also gave a solubility (mole fraction) (in methanol, 289.15 K) of 0.00246, a solubility (mole fraction) (in methanol, 293.65 K) of 0.00312 and a solubility (mole fraction) (in methanol, 298.15 K) of 0.00367. The solubility (mole fraction) (in methanol, 303.15 K) was 0.0045, the solubility (mole fraction) (in methanol, 307.95 K) was 0.00541 and the solubility (mole fraction) (in methanol, 313.15 K) was 0.00662. It also gave a solubility (mole fraction) (in methanol, 318.15 K) of 0.00796, a solubility (mole fraction) (in methanol, 323.15 K) of 0.00984 and a solubility (mole fraction) (in tetrachloromethane, 278.15 K) of 0.00015. It also gave a solubility (mole fraction) (in tetrachloromethane, 283.15 K) of 0.00019, a solubility (mole fraction) (in tetrachloromethane, 288.35 K) of 0.00026 and a solubility (mole fraction) (in tetrachloromethane, 293.65 K) of 0.00034. It also gave a solubility (mole fraction) (in tetrachloromethane, 298.15 K) of 0.00044, a solubility (mole fraction) (in tetrachloromethane, 302.17 K) of 0.00051 and a solubility (mole fraction) (in tetrachloromethane, 307.95 K) of 0.00066. For the same compound, the solubility (mole fraction) (in tetrachloromethane, 312.55 K) was 0.00085, the solubility (mole fraction) (in tetrachloromethane, 317.55 K) was 0.00103 and the solubility (mole fraction) (in tetrachloromethane, 321.55 K) was 0.00121. It also gave a solubility (mole fraction) (in tetrachloromethane, 326.65 K) of 0.00143, a solubility (mole fraction) (in tetrachloromethane, 332.15 K) of 0.00203 and a solubility (mole fraction) (in tetrachloromethane, 337.15 K) of 0.00246.
